These results are taken from patent US4435404A, “Carbostyril derivatives” (priority 1980, dated 1984).

For this test, the target named is T1, cyclic AMP phosphodiesterase (Oryctolagus cuniculus, UniProt G1ST54).
T1 construct: the supernatant was collected to use it as a crude enzyme solution; from tissue; host or cells: rabbit platelets (from platelet-rich plasma)
T1 sequence (G1ST54 1-1128): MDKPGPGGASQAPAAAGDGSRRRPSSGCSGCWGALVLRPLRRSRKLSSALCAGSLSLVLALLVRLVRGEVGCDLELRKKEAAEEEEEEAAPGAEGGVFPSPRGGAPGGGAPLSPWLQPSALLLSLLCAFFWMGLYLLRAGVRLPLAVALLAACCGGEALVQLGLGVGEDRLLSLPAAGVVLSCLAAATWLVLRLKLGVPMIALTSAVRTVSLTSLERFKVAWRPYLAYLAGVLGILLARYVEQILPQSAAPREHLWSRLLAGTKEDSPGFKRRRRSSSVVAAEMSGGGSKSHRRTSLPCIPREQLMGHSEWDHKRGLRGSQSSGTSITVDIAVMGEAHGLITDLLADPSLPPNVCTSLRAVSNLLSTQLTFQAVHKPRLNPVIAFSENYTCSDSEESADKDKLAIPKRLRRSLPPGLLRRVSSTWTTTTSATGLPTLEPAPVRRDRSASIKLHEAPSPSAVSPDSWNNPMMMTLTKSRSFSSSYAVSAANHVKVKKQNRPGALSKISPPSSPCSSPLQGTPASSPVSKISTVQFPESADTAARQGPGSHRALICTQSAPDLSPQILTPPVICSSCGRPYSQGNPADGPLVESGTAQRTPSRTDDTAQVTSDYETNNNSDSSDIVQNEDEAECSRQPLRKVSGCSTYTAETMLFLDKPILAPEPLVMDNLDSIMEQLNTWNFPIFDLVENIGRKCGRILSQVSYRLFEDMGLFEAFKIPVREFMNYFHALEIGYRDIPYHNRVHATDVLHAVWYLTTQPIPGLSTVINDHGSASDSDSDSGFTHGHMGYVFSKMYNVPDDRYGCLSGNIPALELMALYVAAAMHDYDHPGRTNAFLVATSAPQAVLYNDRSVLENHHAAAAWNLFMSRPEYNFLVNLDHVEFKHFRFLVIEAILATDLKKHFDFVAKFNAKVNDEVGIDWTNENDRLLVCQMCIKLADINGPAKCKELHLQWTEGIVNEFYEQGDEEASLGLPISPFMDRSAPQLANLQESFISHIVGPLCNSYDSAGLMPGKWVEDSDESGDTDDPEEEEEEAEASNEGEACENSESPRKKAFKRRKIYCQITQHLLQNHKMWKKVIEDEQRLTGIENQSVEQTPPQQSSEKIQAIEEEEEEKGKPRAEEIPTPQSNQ
Description: Obstructive action against cyclic AMP phosphodiesterase. The test is classed as biochemical. Conditions: rabbit platelet enzyme, 30° C., 20 minutes. The protocol:
That is, for determining the obstructive activity against cyclic AMP phosphodiesterase, 10 ml of a solution obtained by adding 1 mmol of MgCl2 into 50 mmol of tris-hydrochloric acid buffer with pH 7.4 was added to the platelets obtained by further centrifuging the above-said rabbit PRP at 3,000 r.p.m. for 10 minutes, and the suspended platelets were ground by a Teflon potter type homogenizer. This was followed by two times of freezing and thawing treatment and 300-second fracturing with 200 watt supersonic waves. After additional 60-minute centrifugation with 100,000 G, the supernatant was collected to use it as a crude enzyme solution.
10 Milliliters of this crude buffer solution was added to a 1.5×20 cm DEAE-cellulose column which has previously been buffered with 50 mM of tris-acetate buffer (pH 6.0), followed by washing and elution with 30 ml of 50 mM tris-acetate buffer, and this buffer solution was subjected to linear gradient elution with 0 to 0.5 moles of sodium acetate-tris-acetatebuffer (total amount of elute was 300 ml.). The flow rate was 0.5 ml/min, and 5 ml of each fraction was batched out. […] This fraction was used as cyclic AMP phosphodiesterase.
0.1 Milliliter of an aqueous solution of each test compound of a specified concentration was mixed with 40 mmol of tris-hydrochloric acid buffer (pH 8.0, containing 50 μg of cow serum albumin and 4 mmol of MgCl2) containing predetermined 1.0 μmol of cyclic AMP (tritium cyclic AMP), and 0.2 ml of this mixed solution was used as substrate solution.
0.2 Milliliter of the above-prepared cyclic AMP phosphodiesterase of a predetermined concentration was added to said substrate solution and the mixture was reacted at 30° C. for 20 minutes, producing tritium 5'-AMP from the tritium cyclic AMP.
The reaction system was then immersed in boiling water for 2 minutes to stop the reaction, and then this reaction solution was cooled in ice water and, for converting the produced tritium 5'-AMP into tritium adenosine, the solution was added with 0.05 ml (1 mg/ml) of snake poison as 5'-nucleotidase and reacted at 30° C. for 10 minutes. The whole amount of this reaction solution was then added to a cation exchange resin (AG 500 W×4, 200-400 meshes, manufactured by Bio-Rad Co., column size: 0.5×1.5 cm), and the produced tritium anodesine alone was allowed to combine, washed with 6 ml of distilled water and eluted with 1.5 ml of 3 N-ammonia water. The whole quantity of the elutant was added with 10 ml of a triton-toluene type scintillator and the produced tritium adenosine was measured by a liquid scintillation counter to determine the phosphodiesterase activity.
In this way, the phosphodiesterase activation value (Vs) of the test compounds of the respective concentrations was determined, and the phosphodiesterase obstruction rate (%) was determined from said activation value (Vs) and control value (Vc) (obtained from water not containing any test compound) from the following formula: [formula] Known 1-methyl-3-isobutylxanthine was used as control.

Take `O=C(CCCOc1ccc2[nH]c(=O)ccc2c1)N(CCO)C1CCCCC1` [No. 1, 6-{3-[N-(2-hydroxyethyl)-N-cyclohexylaminocarbonyl]propoxy}carbostyril]: the IC50 was 150 nM.

In general, IC50 refers to the concentration that inhibits the measured activity by half. A higher IC50 goes with a need for much substance.
